This is an account of results in publication PMC9697330, “Co-Delivery of 8-Hydroxyquinoline Glycoconjugates and Doxorubicin by Supramolecular Hydrogel Based on α-Cyclodextrin and pH-Responsive Micelles for Enhanced Tumor Treatment” (Pharmaceutics, 2022).

The structures appear in SMILES notation. Read-outs that look alike come from different tables or passages of the source.

The test system of data set [1] is NHDF-Neo (Normal Human Dermal Fibroblasts-Neonatal). The experiment in a line: MTT assay, cytotoxicity against NHDF-Neo cells. The data set is classed as cell-based. From the text: (§1) The human breast adenocarcinoma cell line (MCF-7) was received from collections at the Maria Skłodowska-Curie Memorial Cancer Center and Institute of Oncology (Gliwice, Poland). The Normal Human Dermal Fibroblasts—Neonatal (NHDF-Neo) were purchased from LONZA (Cat. No. CC-2509, Lonza, Poland). The culture media consisted of DMEM + F12 medium, with 5% antibiotics (penicillin and streptomycin) and 10% fetal bovine serum. The culture media was bought from HyClone. Fetal bovine serum (FBS) was purchased from Eurx, Poland. Antibiotic Antimycotic Solution (100×) was purchased from Sigma-Aldrich, Germany.
(§2) The cytotoxicity of blank and drug-loaded SMH were evaluated using the MTT assay (Merck, Darmstadt, Germany). Briefly, human breast adenocarcinoma (MCF-7) or Normal Human Dermal Fibroblasts-Neonatal (NHDF-Neo) cells were seeded into 96-well plates at a concentration of 5 × 10^3 per well. The cell cultures were incubated for 24 h at 37 °C in a humidified atmosphere of 5% CO2. Afterward, the culture medium was removed, replaced with tested formulations, in a medium with varying concentrations, and incubated further for 24, 48, or 72 h, respectively. After that, the medium was removed and the MTT solution was added (0.5 mg·mL^−1 in PBS). After three hours of incubation, the MTT solution was taken off and the precipitated formazan was dissolved in dimethylsulfoxide. The absorbance was measured at 570 nm using a plate reader (Epoch, BioTek, Winooski, VT, USA). The experiments were performed in at least three independent repetitions, with four technical repeats for each tested concentration. The IC50 values were calculated using CalcuSyn software (ver. 2.0, Biosoft, Cambridge, UK). The IC50 parameter was defined as the compound concentration that was necessary to reduce the proliferation of cells to 50% of the untreated control. The results are presented as average values with standard deviations. […] Values of CI < 1 represent synergism; CI = 1 represents an additive interaction (i.e., no interaction); and CI > 1 represents antagonism.

Data set [2] relates to MCF-7 (human breast adenocarcinoma cell line). The experiment in a line: MTT assay, cytotoxicity against MCF-7 cells. The data set is classed as cell-based.
Text: as §1, §2

Data set [3] is described as follows: NMR titration for host-guest inclusion complex of 8HQ-Glu with α-CD. It counts as physicochemical. The settings on record: D2O, α-CD 10 mM, 8HQ-Glu 1 to 20 mM, 24 h at rt. The method, then:
SMHs were prepared based on the host–guest interaction between the PEG chains of mPEG-b-PKPC or mPEG-b-PTMC micelles and α-CD. Typically, the lyophilized micelles were resuspended (15 mg·mL^−1) in PBS at pH 7.4, as a hydrogel precursor. Then, the same volume of 12% solution of α-CD in PBS was added to the micelle solution. The mixture was vortexed for 1 min followed by sonication for 1 min. The resultant mixture was allowed to stand still overnight for solidification. Firstly, gelation was visually observed by a simple vial inversion method. […] Thus, SMHs obtained (mPEG-b-PKPC^SMH or mPEG-b-PTMC^SMH) were used for characterization studies without any further modification. The transmittance of the α-CD and mPEG-b-PKPC^mic solution, measured at predetermined time intervals at 650 nm, immediately after mixing, was studied using a UV-Vis spectrophotometer JASCO V-570 (Tokyo, Japan). To confirm the formation of supramolecular hydrogels, the samples of mPEG5k, α-CD, mPEG-b-PKPC, or mPEG-b-PTMC, the lyophilized mPEG-b-PKPC^mic, or mPEG-b-PTMC^mic, the physical mixture of α-CD with the respective micelles, and freeze-dried SMHs were studied using the X-ray diffraction method (XRD). […] The samples were incubated for 24 h at rt with gentle shaking and the NMR spectra were measured.

`COc1cccc2c1C(=O)c1c(O)c3c(c(O)c1C2=O)C[C@@](O)(C(=O)CO)C[C@@H]3O[C@H]1C[C@H](N)[C@H](O)[C@H](C)O1` [DOX, doxorubicin]: the IC50 in data set [1] (24 h incubation, read-out: Activity IC50, as DOX concentration) was above 20 µM; in data set [1] (48 h incubation, read-out: Activity IC50, as DOX concentration) it was 9.8 µM; in data set [1] (72 h incubation, read-out: Activity IC50, as DOX concentration), 0.39 µM; in data set [2] (MCF-7, 24 h incubation, read-out: Activity IC50, as DOX concentration) it was 8.73 µM; in data set [2] (MCF-7, 48 h incubation, read-out: Activity IC50, as DOX concentration) it was 0.81 µM; in data set [2] (MCF-7, 72 h incubation, read-out: Activity IC50, as DOX concentration) it was 0.15 µM.

For the compound `OC1O[C@H](Cn2cc(COc3cccc4cccnc34)nn2)[C@@H](O)[C@H](O)[C@H]1O` (stereo partly drawn) [8HQ-Glu, 6-(4-(8-quinolinyloxymethyl)-1H-1,2,3-triazol-1-yl)-6-deoxy-D-glucopyranose], the IC50 in data set [1] (Homo sapiens, 24 h incubation, read-out: Activity IC50, as 8HQ-Glu concentration) is above 200 µM; in data set [1] (Homo sapiens, 48 h incubation, read-out: Activity IC50, as 8HQ-Glu concentration), above 200 µM; in data set [1] (Homo sapiens, 72 h incubation, read-out: Activity IC50, as 8HQ-Glu concentration), above 200 µM; in data set [2] (Homo sapiens, MCF7, MCF-7, 24 h incubation, read-out: Activity IC50, as 8HQ-Glu concentration), 168 µM; in data set [2] (Homo sapiens, MCF7, MCF-7, 48 h incubation, read-out: Activity IC50, as 8HQ-Glu concentration) it was 128 µM; in data set [2] (Homo sapiens, MCF7, MCF-7, 72 h incubation, read-out: Activity IC50, as 8HQ-Glu concentration), 55.3 µM. Further, the “Host-guest inclusion complex formation with α-CD (in words)” value in data set [3] is given as “no inclusion complex formation”.
